Values of other authors as cited in US20020048596A1, “PREPARATION FOR THE TRANSPORT OF AN ACTIVE SUBSTANCE ACROSS BARRIERS” (priority 1999, published 2002).
Where two headings read alike, the source gives them in different places.

| Compound | CMC (in water / suspension medium) | further results |
| --- | --- | --- |
| distearoyl phosphomaltobionamide | CMC = 10^−5 M |  |
| distearoyl glycerophosphoethanolamine triazopolyethylene glycol (5000) | CMC = 10^−5M |  |
| CC(C)Cc1ccc(C(C)C(=O)O)cc1 (stereo not shown) [ibuprofen, reference compound] |  | solubility: ibuprofen, solubility ≦ 5 × 10^−5M |
| CCCCCCCCCC(=O)OC[C@H](COP(=O)([O-])OCC[N+](C)(C)C)OC(=O)CCCCCCCCC [didecanoyl phosphatidyl choline] |  | CMC (unit not given): CMC ∞ 10^−6 |
